Data published in PubChem BioAssay (NCI).
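Compound exposure: 48 hours, 5 concentrations, 96-well plates. The concentration for 50% growth inhibition is given as GI50. TGI denotes the concentration required for complete inhibition of growth.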

How the values were obtained:
Assay in all cases: growth of human tumour cells (NCI), 48 h
[1] = tested on: BT-549 breast
[2] = tested on: DU-145 prostate
[3] = tested on: MDA-MB-435
[4] = tested on: HS 578T breast

Oc1ccc2oc3ncc(Br)c(-c4ccccc4)c3c2c1
GI50 [1]: 76.9 µM
TGI [1]: > 100 µM
GI50 [2]: > 100 µM
TGI [2]: > 100 µM
GI50 [3]: > 100 µM
TGI [3]: > 100 µM

Cc1cnc(C(=O)NNc2nc3sc4c(c3c(=O)n2C)C(C)CCC4)cn1 (stereo not given)
GI50 [1]: 1.03 µM
TGI [1]: 14 µM
GI50 [2]: 0.458 µM
TGI [2]: 4.15 µM
GI50 [4]: 1.56 µM
TGI [4]: 17.1 µM
GI50 [3]: 0.751 µM
TGI [3]: 7.26 µM

Cn1cc(-c2ccc(-c3ccc(C4=NC5(CC5)C(=O)N4C[C@@H]4CCN(C(=O)C5CC5)C4)cc3)cc2)cn1
GI50 [1]: 6.09 µM
TGI [1]: 26.1 µM
GI50 [4]: 19.2 µM
TGI [4]: 84.1 µM
GI50 [3]: 10.4 µM
TGI [3]: 38.9 µM

CN(C)c1ccc(/C=C/c2cc[n+](C)c(/C=C/c3ccc(N(C)C)cc3)c2)cc1
GI50 [1]: 0.349 µM
TGI [1]: 1.61 µM
GI50 [2]: 0.398 µM
TGI [2]: 11 µM
GI50 [4]: 0.491 µM
TGI [4]: 16.6 µM
GI50 [3]: 0.346 µM
TGI [3]: 1.32 µM

COc1cc2c(cc1OC)C13CCN4CC5CCOC6CC(=O)N2C1C6C5CC43 (stereo not given)
TGI [1]: > 100 µM
TGI [2]: > 100 µM
TGI [4]: > 100 µM
TGI [3]: > 100 µM

CN(C)CCNC(=O)c1ccc(NC(=O)c2nc([N+](=O)[O-])cn2C)cc1
TGI [1]: > 100 µM
TGI [2]: > 100 µM
TGI [4]: > 100 µM
TGI [3]: > 100 µM

COc1ccc(-c2ccc(-c3ccc(C(=N)N)o3)o2)cc1
GI50 [1]: 4.55 µM
TGI [1]: 16.9 µM
GI50 [2]: 1.91 µM
TGI [2]: 4.86 µM
GI50 [4]: 4.33 µM
TGI [4]: 18.4 µM
GI50 [3]: 0.293 µM
TGI [3]: 1.12 µM

O=C1c2ccccc2-c2c1c1ccccc1c(=O)n2CCCn1ccnc1
GI50 [1]: 3.36 µM
TGI [1]: > 100 µM
GI50 [2]: 1.41 µM
TGI [2]: 6.94 µM
GI50 [4]: 7.92 µM
TGI [4]: 94.7 µM
GI50 [3]: 2.74 µM
TGI [3]: 10.7 µM

CCOC(=O)c1c2c(n3ccccc13)C(=O)c1ncccc1C2=O
GI50 [1]: 0.0637 µM
TGI [1]: 41 µM
GI50 [2]: 0.0466 µM
TGI [2]: 5.31 µM
GI50 [3]: 0.194 µM
TGI [3]: 16.4 µM

Cc1ccc(Cl)cc1NC(=O)c1sc2nc3c(cc2c1N)C(=O)CCC3
GI50 [2]: 4.4 µM
TGI [2]: > 100 µM
GI50 [4]: 2.34 µM
TGI [4]: > 100 µM
GI50 [3]: 1.1 µM
TGI [3]: 5.04 µM

N#C/C(=C\c1ccc(Br)cc1)n1nnc2ccc(F)cc21
GI50 [1]: 0.671 µM
TGI [1]: 3.63 µM
GI50 [4]: 2.71 µM
TGI [4]: 20.4 µM
GI50 [3]: 0.19 µM
TGI [3]: 0.403 µM
